The results in this text go back to patent US9662327B2 (AGIOS PHARMACEUTICALS, INC, priority 2011, dated 2017).

One test concerns the target IDH1 R132H (Homo sapiens (Human), UniProt O75874, R132H). Description: Assays for IDH1 R132H Inhibitors (NADPH/aKG, resazurin detection). Format: biochemical. Particulars: IDH1 R132H enzyme, Table 3; read-out: R132H IC50. An outline of the steps:
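Substrate mix held 8 uM NADPH plus 2 mM aKG; buffer was 20 mM Tris pH 7.5 with 150 mM NaCl, 10 mM MgCl2, 0.03% BSA. After 50 min room-temperature reaction, NADPH remaining was detected with 30 μM resazurin mix over 5 min.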
(Alamar Blue is a resazurin reagent that responds to reducing activity.)

The subject of another test is U87R132H (U87MG) cells. The test is described as follows: Cellular assay for IDH1m inhibitors: inhibition of 2-HG production in U87MG (U87R132H) cells (LC-MS). Format: cell-based. Particulars: Homo sapiens, U-87 MG, 48 hours. As to the method: (§1) Cells (e.g., HT1080 or U87MG) are grown in T125 flasks in DMEM containing 10% FBS, 1× penicillin/streptomycin and 500 ug/mL G418. They are harvested by trypsin and seeded into 96 well white bottom plates at a density of 5000 cell/well in 100 ul/well in DMEM with 10% FBS. No cells are plates in columns 1 and 12. Cells are incubated overnight at 37 C in 5% CO2. The next day compounds are made up at 2× concentration and 100 ul are added to each cell well. The final concentration of DMSO is 0.2% and the DMSO control wells are plated in row G. The plates are then placed in the incubator for 48 hours. At 48 hours, 100 ul of media is removed from each well and analyzed by LC-MS for 2-HG concentrations. The cell plate is placed back in the incubator for another 24 hours. At 72 hours post compound addition, 10 mL/plate of Promega Cell Titer Glo reagent is thawed and mixed. The cell plate is removed from the incubator and allowed to equilibrate to room temperature. Then 100 ul of reagent is added to each well of media. The cell plate is then placed on an orbital shaker for 10 minutes and then allowed to sit at room temperature for 20 minutes. The plate is then read for luminescence with an integration time of 500 ms.

Another test deals with HT1080 cells. The test is described as follows: Cellular assay for IDH1m inhibitors: inhibition of 2-HG production in HT1080 cells (LC-MS). Format: cell-based. Particulars: Homo sapiens, HT-1080, 48 hours. As to the method: as §1

Sequence of IDH1 R132H (O75874 whole entry R132H): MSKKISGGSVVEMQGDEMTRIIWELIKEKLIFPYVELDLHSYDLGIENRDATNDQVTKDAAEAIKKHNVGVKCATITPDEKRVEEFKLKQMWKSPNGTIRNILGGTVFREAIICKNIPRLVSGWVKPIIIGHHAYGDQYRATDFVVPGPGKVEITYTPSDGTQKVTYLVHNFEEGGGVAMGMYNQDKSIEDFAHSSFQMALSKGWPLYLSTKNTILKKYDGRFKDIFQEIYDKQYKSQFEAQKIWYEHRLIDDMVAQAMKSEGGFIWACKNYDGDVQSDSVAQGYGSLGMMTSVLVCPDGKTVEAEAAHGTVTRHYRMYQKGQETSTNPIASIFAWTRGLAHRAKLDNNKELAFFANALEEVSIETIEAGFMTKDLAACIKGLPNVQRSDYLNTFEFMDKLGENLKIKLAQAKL

On to `CC(C)[C@@H]1CN(c2nc(C3CC3)c3c(c2C#N)CC(C)(C)OC3)CCN1C(=O)c1ccon1` [Compound 427, (R)-8-cyclopropyl-6-(3-isopropyl-4-(isoxazole-3-carbonyl)piperazin-1-yl)-3,3-dimethyl-3,4-dihydro-1H-pyrano[3,4-c]pyridine-5-carbonitrile], for which the results for the IC50 on IDH1 R132H, with U87R132H (U87MG) cells and in the test with HT1080 cells were 500 to 1000 nM, 1000 to 10000 nM and 1000 to 10000 nM, respectively.

Turning to `[2H]C([2H])([2H])C([2H])(C([2H])([2H])[2H])[C@@]1([2H])N(C(=O)CC(F)(F)F)C([2H])([2H])C([2H])([2H])N(c2nc(C3CC3)c3c(c2C#N)CC(C)(C)OC3)C1([2H])[2H]` [Compound 452, (R)-8-cyclopropyl-6-(2,2,3,3,5,6,6-heptadeuterio-5-(perdeuteriopropan-2-yl)-4-(3,3,3-trifluoropropanoyl)piperazin-1-yl)-3,3-dimethyl-3,4-dihydro-1H-pyrano[3,4-c]pyridine-5-carbonitrile], the figures for the IC50 on IDH1 R132H, with U87R132H (U87MG) cells and in the test with HT1080 cells were < 500 nM, 500 to 1000 nM and 1000 to 10000 nM, respectively.

`C=CS(=O)(=O)N1CCc2c(C#N)c(-c3ccc(C(=O)OC)cc3F)nc(C3CC3)c2C1` [Compound 496]: the IC50 on IDH1 R132H, in the test with U87R132H (U87MG) cells and in the test with HT1080 cells was < 500 nM in each case.

Turning to `CCOC(=O)[C@@H]1C[C@H]1C(=O)N1CCN(c2nc(C3CC3)c3c(c2C#N)CC(C)(C)OC3)C[C@H]1C(C)C` [Compound 465, (1R,2R)-ethyl 2-((R)-4-(5-cyano-8-cyclopropyl-3,3-dimethyl-3,4-dihydro-1H-pyrano[3,4-c]pyridin-6-yl)-2-isopropylpiperazine-1-carbonyl)cyclopropanecarboxylate], the IC50 was < 500 nM on IDH1 R132H, < 500 nM in the test on U87R132H (U87MG) cells and 500 to 1000 nM in the test on HT1080 cells.

For `CC(C)[C@@H]1CN(c2nc(C3CC3)c3c(c2C#N)CC(C)(C)OC3)CCN1C(=O)CCCO` [Compound 443, (R)-8-cyclopropyl-6-(4-(4-hydroxybutanoyl)-3-isopropylpiperazin-1-yl)-3,3-dimethyl-3,4-dihydro-1H-pyrano[3,4-c]pyridine-5-carbonitrile], the values for the IC50 on IDH1 R132H, in the test with U87R132H (U87MG) cells and in the test with HT1080 cells were < 500 nM, 1000 to 10000 nM and 1000 to 10000 nM, respectively.

In the case of `CC1(C)Cc2c(C#N)c(N3CCN(C(=O)CC(F)(F)F)[C@H](C4CC4)C3)nc(C3CC3)c2CO1` [Compound 435, (R)-8-cyclopropyl-6-(3-cyclopropyl-4-(3,3,3-trifluoropropanoyl)piperazin-1-yl)-3,3-dimethyl-3,4-dihydro-1H-pyrano[3,4-c]pyridine-5-carbonitrile], the IC50 on IDH1 R132H, with U87R132H (U87MG) cells and in the test with HT1080 cells was < 500 nM in each case.

Consider `COCCCC(=O)N1CCN(c2nc(C3CC3)c3c(c2C#N)CC(C)(C)OC3)C[C@H]1C(C)C` [Compound 424, (R)-8-cyclopropyl-6-(3-isopropyl-4-(4-methoxybutanoyl)piperazin-1-yl)-3,3-dimethyl-3,4-dihydro-1H-pyrano[3,4-c]pyridine-5-carbonitrile], for which the IC50 is < 500 nM on IDH1 R132H, 500 to 1000 nM with U87R132H (U87MG) cells and 500 to 1000 nM with HT1080 cells.

Regarding `[2H]C1([2H])CN(c2nc(C3CC3)c3c(c2C#N)CC(C)(C)OC3)C([2H])([2H])C([2H])(C([2H])(C([2H])([2H])[2H])C([2H])([2H])[2H])N1C(=O)CC(F)(F)F` [Compound 476, (R)-8-cyclopropyl-3,3-dimethyl-6-(2,2,3,5,5-pentadeuterio-3-(1,1,1,3,3,3-hexadeuteriopropan-2-yl)-4-(3,3,3-trifluoropropanoyl)piperazin-1-yl)-3,4-dihydro-1H-pyrano[3,4-c]pyridine-5-carbonitrile], the IC50 at IDH1 R132H was < 500 nM; in the test with U87R132H (U87MG) cells, 1000 to 10000 nM; in the test on HT1080 cells, 1000 to 10000 nM.

A word on the IC50: it is the concentration at which inhibition is half-maximal.
